From ChEMBL document CHEMBL1142629, “New lipids from the tunicate Cystodytes cf. dellechiajei, as PLA2 inhibitors” (J Nat Prod, 2000)
Values after ≈ are worked out from the molar mass of the structure shown.

Test system: Crotalus adamanteus
Assay: Inhibition of Crotalus adamanteus venom PLA2

## CCCCCCCCCCCCCCCCCCCC[C@@H](O)C(=O)N[C@@H](CO)[C@H](O)[C@H](O)CCCCCCCCCC(C)C
  ED50: 100 µg/mL (≈ 159 µM)
